Reference: ChEMBL document CHEMBL1201862, “PubChem BioAssay data set” (2004)
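These data come from cells grown in 96-well plates and exposed to compound for 48 hours at five concentrations. The concentration for 50% growth inhibition is given as GI50.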 Active and inactive are the calls of the source. Cut-off read from the data, not from the text of the source: active = GI50 up to about 1.1 µM and inactive = higher.

Columns and labels:
Assay in all cases: growth of human tumour cells (NCI), 48 h
KM-20L2 = tested on: KM-20L2
SNB-78 = tested on: SNB-78
DLD-1 = tested on: DLD-1
M19-MEL = tested on: M19-MEL
DMS-273 = tested on: DMS-273
XF498 = tested on: XF498
DMS-114 = tested on: DMS-114
HOP-18 = tested on: HOP-18
RXF 631 = tested on: RXF 631

Cc1cc(C)nc(NS(=O)(=O)c2ccc(NC(=O)c3cccc4c(N)c5ccccc5nc34)cc2)n1
GI50 (KM-20L2): 88.7 µM (inactive)
GI50 (SNB-78): > 100 µM (inactive)
GI50 (DLD-1): > 100 µM (inactive)
GI50 (M19-MEL): > 100 µM (inactive)
GI50 (DMS-273): > 100 µM (inactive)
GI50 (XF498): > 100 µM (inactive)
GI50 (DMS-114): > 100 µM (inactive)

O=C(Nc1ccc(Cl)cc1Cl)C(=O)C(C(=O)c1ccc2ccccc2c1)C1OC(=O)c2ccccc21 (stereo unspecified)
GI50 (SNB-78): 3.33 µM (inactive)
GI50 (DLD-1): 10.7 µM (inactive)
GI50 (M19-MEL): 12.6 µM (inactive)
GI50 (DMS-114): 11.1 µM (inactive)

COC(=O)C(C)(C)/N=C/N(C)C
GI50 (KM-20L2): > 100 µM (inactive)
GI50 (HOP-18): > 100 µM (inactive)
GI50 (SNB-78): > 100 µM (inactive)
GI50 (RXF 631): > 100 µM (inactive)
GI50 (DLD-1): > 100 µM (inactive)
GI50 (M19-MEL): > 100 µM (inactive)
GI50 (DMS-273): > 100 µM (inactive)
GI50 (XF498): > 100 µM (inactive)
GI50 (DMS-114): > 100 µM (inactive)

Cc1cnoc1/N=C1\C=C(Nc2oncc2C)C(=O)c2ccccc21
GI50 (KM-20L2): > 100 µM (inactive)
GI50 (HOP-18): > 100 µM (inactive)
GI50 (SNB-78): > 100 µM (inactive)
GI50 (RXF 631): > 100 µM (inactive)
GI50 (DLD-1): > 100 µM (inactive)
GI50 (DMS-273): > 100 µM (inactive)
GI50 (XF498): > 100 µM (inactive)
GI50 (DMS-114): 46.8 µM (inactive)

COc1cccc(/C=C2\CCC(CN(C)C)C2=O)c1 (stereo unspecified)
GI50 (KM-20L2): 15.8 µM (inactive)
GI50 (HOP-18): 18.6 µM (inactive)
GI50 (SNB-78): 21.7 µM (inactive)
GI50 (RXF 631): 6.59 µM (inactive)
GI50 (DLD-1): 2.8 µM (inactive)
GI50 (M19-MEL): 4.84 µM (inactive)
GI50 (DMS-273): 12.2 µM (inactive)
GI50 (XF498): 18.9 µM (inactive)
GI50 (DMS-114): 13.9 µM (inactive)

Cn1cccc(C(=O)c2ccccc2)c1=O
GI50 (KM-20L2): > 100 µM (inactive)
GI50 (SNB-78): > 100 µM (inactive)
GI50 (DLD-1): > 100 µM (inactive)
GI50 (M19-MEL): > 100 µM (inactive)
GI50 (DMS-273): > 100 µM (inactive)
GI50 (XF498): > 100 µM (inactive)
GI50 (DMS-114): > 100 µM (inactive)

CCC/C=C\C=C\C1(NS(=O)(=O)c2ccc(C)cc2)CCC(C(C)(C)C)CC1 (stereo unspecified)
GI50 (KM-20L2): 16.9 µM (inactive)
GI50 (HOP-18): 14.9 µM (inactive)
GI50 (SNB-78): 19.1 µM (inactive)
GI50 (DLD-1): 19.4 µM (inactive)
GI50 (M19-MEL): 17.1 µM (inactive)
GI50 (DMS-273): 13.4 µM (inactive)
GI50 (XF498): 16.7 µM (inactive)

CC(CN(C)C)/C(=N\Nc1ccccc1)c1ccccc1 (stereo unspecified)
GI50 (KM-20L2): 0.132 µM (active)
GI50 (HOP-18): 10.7 µM (inactive)
GI50 (SNB-78): 6.1 µM (inactive)
GI50 (DLD-1): 0.256 µM (active)
GI50 (M19-MEL): 1.24 µM (inactive)
GI50 (DMS-273): 0.324 µM (active)
GI50 (DMS-114): 0.743 µM (active)

Clc1ccccc1C(n1cc(Br)cn1)n1cc(Br)cn1
GI50 (SNB-78): > 100 µM (inactive)
GI50 (RXF 631): > 10 µM (inactive)
GI50 (DLD-1): 18.6 µM (inactive)
GI50 (M19-MEL): 14.4 µM (inactive)
GI50 (DMS-273): 17.8 µM (inactive)
GI50 (XF498): 17.5 µM (inactive)
GI50 (DMS-114): 21.4 µM (inactive)

CC(=O)CC(=O)CCCC(=O)Nc1ccc(Cl)cc1Cl
GI50 (KM-20L2): > 100 µM (inactive)
GI50 (HOP-18): 25.2 µM (inactive)
GI50 (RXF 631): > 100 µM (inactive)
GI50 (DLD-1): > 100 µM (inactive)
GI50 (DMS-273): > 100 µM (inactive)
GI50 (XF498): > 100 µM (inactive)

COC(=O)C1=C(c2ccc3c(c2)OCO3)O[C@H](c2cc(OC)c(OC)c(OC)c2)[C@H]1COC(C)=O
GI50 (KM-20L2): 2.14 µM (inactive)
GI50 (HOP-18): 15.2 µM (inactive)
GI50 (SNB-78): 8.49 µM (inactive)
GI50 (DLD-1): 7.19 µM (inactive)
GI50 (M19-MEL): 2.45 µM (inactive)
GI50 (DMS-273): 2.64 µM (inactive)
GI50 (XF498): 4.25 µM (inactive)
GI50 (DMS-114): 1.15 µM (inactive)

O=C(Nc1nc2ccc([N+](=O)[O-])cc2s1)C(=O)C(C(=O)c1ccncc1)C1OC(=O)c2ccccc21 (stereo unspecified)
GI50 (KM-20L2): > 100 µM (inactive)
GI50 (HOP-18): 42.7 µM (inactive)
GI50 (SNB-78): > 100 µM (inactive)
GI50 (RXF 631): > 100 µM (inactive)
GI50 (DLD-1): > 100 µM (inactive)
GI50 (M19-MEL): > 100 µM (inactive)
GI50 (DMS-273): > 100 µM (inactive)
GI50 (XF498): > 100 µM (inactive)
GI50 (DMS-114): > 100 µM (inactive)

COc1ccc(S(=O)(=O)N/N=C\c2cc([N+](=O)[O-])cc(I)c2O)c(OC)c1OC
GI50 (KM-20L2): 36.2 µM (inactive)
GI50 (HOP-18): 23.3 µM (inactive)
GI50 (SNB-78): 28.6 µM (inactive)
GI50 (DLD-1): 28.8 µM (inactive)
GI50 (M19-MEL): 31.7 µM (inactive)
GI50 (DMS-273): 32.4 µM (inactive)
GI50 (XF498): 20.7 µM (inactive)
GI50 (DMS-114): 25.1 µM (inactive)

COc1cc2c(cc1OC)C(C(=O)O)C(c1ccccc1)N(C)C2=O (stereo unspecified)
GI50 (KM-20L2): > 100 µM (inactive)
GI50 (HOP-18): > 100 µM (inactive)
GI50 (SNB-78): > 100 µM (inactive)
GI50 (DLD-1): > 100 µM (inactive)
GI50 (M19-MEL): > 100 µM (inactive)
GI50 (XF498): > 100 µM (inactive)
GI50 (DMS-114): > 100 µM (inactive)

CC1=C(C(=O)Nc2ccccc2C)C(c2ccc([N+](=O)[O-])cc2)C(C(=O)Nc2ccccc2C)=C(C)N1
GI50 (KM-20L2): 51.9 µM (inactive)
GI50 (HOP-18): 55.2 µM (inactive)
GI50 (RXF 631): 76.6 µM (inactive)
GI50 (DLD-1): 50 µM (inactive)
GI50 (M19-MEL): 64.1 µM (inactive)
GI50 (DMS-273): 43.4 µM (inactive)
GI50 (XF498): 40.3 µM (inactive)
GI50 (DMS-114): 33.3 µM (inactive)
